How the values were obtained:
HBD3 = HBD3 expression in normal human keratinocytes (NHEK); assay type: cell-based; parameters: unit not given here; conditions: Example 2
Method: (§1) To assess the effect of pimecrolimus on the innate immune response of the epidermis, cultures of normal human keratinocytes (NHEK) are stimulated with combinations of a concentration of 10 nM pimecrolimus, 1 μg/ml TLR 2/CD14 ligand—peptidoglycan (PGN), 10 μg/ml lipoteichoic acid (LTA), 2 0.1 μg/ml TLR 2/6 ligand—Malp-, and/or 0.1 μg/ml TLR 4/CD14 ligand—lipopolysaccharide (LPS). Expression of cathelicidin mRNA (Table 3) and protein as well as Human Beta Defensin (HBD) 2 (Table 4) and HBD3 (Table 5) expression in normal human keratinocytes is measured.

TLR2 = TLR2 gene expression by qPCR in NHEK; assay type: cell-based, human; conditions: for TLR2 mRNA expression (Mean): 10 nM pimecrolimus; for TLR2 mRNA expression (Means of N = 3): Example 6, 10 nM Pimecrolimus, 1 nM 1,25D3; for TLR2 gene expression (Mean): Example 8, 24 hours
Method: (§2) To assess the effect of pimecrolimus on the innate immune response of the epidermis, cultures of normal human keratinocytes (NHEK) are stimulated with a combination of a concentration of 10 nM pimecrolimus and of 1 nM 1.25D3. Gene expression of TLR1, TLR2, TLR4, TLR6 and CD14 are evaluated by qPCR. For CD14 protein expression, a Western Blot is performed and bands are quantified by densitometry using lmagej. Vehicle treated keratinocytes serve as controls. Cathelicidin protein expression is evaluated by immunofluorescence staining.
(§3) To assess the effect of pimecrolimus on the innate immune response of the epidermis, cultures of normal human keratinocytes (NHEK) are stimulated with a concentration of 10 nM pimecrolimus,1 nM 1.25 D3, 0.1 μg/ml TLR2/6 ligand Malp-2 or their combination. Expression of cathelicidin, CD14 and TLR2 mRNA normal human keratinocytes is measured and evaluated accordingly to the procedures as detailed in Example 2 above.
(§4) To assess the effect of time dependent effects of pimecrolimus on the innate immune response of the epidermis, cultures of normal human keratinocytes (NHEK) are stimulated with 10 nM Pimecrolimus and low dose calciferol (1,25D3) 1 nM for different time points. mRNA expression of cathelicidin, CD14 and TLR2 is analyzed by qPCR.
(§5) To assess the effect of calciferol on varying levels of pimecrolimus on the innate immune response of the epidermis, cultures of normal human keratinocytes (NHEK) are stimulated with 0.01 nM, 0.1 nM, 1 nM and 10 nM concentrations of pimecrolimus with or without 1 nM concentrations of calciferol for 24 hours. Expression of cathelicidin mRNA and gene expression of TLR2 is measured and evaluated accordingly to the procedures as detailed in Example 2 above.

cathelicidin = test: Cathelicidin mRNA expression in normal human keratinocytes (NHEK); assay type: cell-based; parameters: Cathelicidin mRNA expression (Mean) / Cathelicidin mRNA expression (means): unit not given here; conditions: for Cathelicidin mRNA expression (means): 1 uM tacrolimus, 1 ug/ml CsA, 25ng/ml rapamycin; for Cathelicidin mRNA expression (Means of N = 3): Example 6, 10 nM Pimecrolimus, 1 nM 1,25D3
Method: as §1, §3
To assess the effect of pimecrolimus on the innate immune response of the epidermis, cultures of normal human keratinocytes (NHEK) are stimulated with a concentration of 10 nM pimecrolimus, 1 uM tacrolimus, 1 ug/ml CsA, 25ng/ml rapamycin, or a combination of pimecrolimus and rapamycin, each of these with or without 0.1 μg/ml TLR2/6 ligand Malp-2. Cathelicidin mRNA expression is evaluated.
as §4
To assess the effect of varying levels of pimecrolimus on the innate immune response of the epidermis, cultures of normal human keratinocytes (NHEK) are stimulated with 0 nM, 5 nM, 10 nM, 20 nM, 30 nM, […], […] and 60 nM concentrations of pimecrolimus. Expression of cathelicidin mRNA expression is measured and evaluated accordingly to the procedures as detailed in Example 2 above.
as §5

TLR1 = TLR1 gene expression by qPCR in NHEK; assay type: cell-based, human; conditions: Example 3; 10 nM pimecrolimus, 1 nM 1.25D3
Method: as §2

[1] = test system: Staphylococcus aureus ΔmprF; test: Direct co-incubation of Pimecrolimus with S. aureus ΔmprF cultures (OD600); assay type: cell-based; conditions: for Bacterial growth OD600 (Mean): 10 nM Pimecrolimus co-incubated with S. aureus, no keratinocyte lysate, 37° C.
Method: (§6) To assess the effect of pimecrolimus on the innate immune response of the epidermis against bacteria, cultures of normal human keratinocytes (NHEK) are stimulated with a concentration of 10 nM pimecrolimus, 1 nM 1.25D3 (active 1.25 D-hydroxy calciferol) or their combination. Cells are lysed via sonication 20 minutes in an ice bath, after which cell lysates were mixed with Staphylococcus aureus ΔmprF cultures and incubated at 37° C. Bacterial growth over time is monitored by OD600 (Table 1). To determine if Pimecrolimus alone was able to kill Staphylococcus aureus ΔmprF, Pimecrolimus in a concentration of 10 nM is co-incubated with Staphylococcus aureus ΔmprF cultures and incubated at 37° C. (Table 2). Bacterial growth is monitored by OD600 (*: p<0.05; **: p<0.01; Student's t-test).

[2] = test system: Staphylococcus aureus ΔmprF; test: Growth of S. aureus ΔmprF (OD600) mixed with lysates of stimulated normal human keratinocytes; assay type: cell-based; conditions: for Bacterial growth OD600 (Mean): S. aureus + lysates of NHEK stimulated with 10 nM pimecrolimus, 1 nM 1.25D3 or combination, 37° C.
Method: as §6

[3] = in the presence of low dose 1,25D3 and Malp-2

CC[C@@H]1/C=C(\C)C[C@H](C)C[C@H](OC)[C@H]2O[C@@](O)(C(=O)C(=O)N3CCCC[C@H]3C(=O)O[C@H](/C(C)=C/[C@@H]3CC[C@H](Cl)[C@H](OC)C3)[C@H](C)[C@@H](O)CC1=O)[C@H](C)C[C@@H]2OC [Pimecrolimus, pimecrolimus]
HBD3 expression (Mean) (HBD3; with 10 nM Pimecrolimus + 0.1 μg/ml LPS): 1.06 | HBD3 expression (Mean) (HBD3; with 10 nM Pimecrolimus + 0.1 μg/ml Malp-2): 28.59 | HBD3 expression (Mean) (HBD3; with 10 nM Pimecrolimus + 1 μg/ml PGN): 1.24 | HBD3 expression (Mean) (HBD3; with 10 nM Pimecrolimus + 10 μg/ml LTA): 0.72 | HBD3 expression (Mean) (HBD3; with 10 nM Pimecrolimus, no TLR ligand (control row)): 0.72 | TLR2 mRNA expression (Mean) (TLR2; Example 3, 1 nM 1.25D3): 1.80 | TLR2 mRNA expression (Mean) (TLR2; Example 4, 1 nM 1.25 D3, 0.1 μg/ml Malp-2 or combination): 0.29 | TLR2 mRNA expression (Means of N = 3) (TLR2; 0 h): 1.00 | TLR2 mRNA expression (Means of N = 3) (TLR2; 8 h): 0.64 | TLR2 mRNA expression (Means of N = 3) (TLR2; 24 h): 1.31 | TLR2 mRNA expression (Means of N = 3) (TLR2; 48 h): 1.51 | TLR2 gene expression (Mean) (TLR2; 0.01 nM PIM with 1 nM 1.25D3): 0.82 | TLR2 gene expression (Mean) (TLR2; 0.01 nM PIM, no 1.25D3): 0.73 | TLR2 gene expression (Mean) (TLR2; 0.1 nM PIM with 1 nM 1.25D3): 0.57 | TLR2 gene expression (Mean) (TLR2; 0.1 nM PIM, no 1.25D3): 0.59 | TLR2 gene expression (Mean) (TLR2; 1 nM PIM with 1 nM 1.25D3): 1.07 | TLR2 gene expression (Mean) (TLR2; 1 nM PIM, no 1.25D3): 0.98 | TLR2 gene expression (Mean) (TLR2; 10 nM PIM with 1 nM 1.25D3): 3.94 | TLR2 gene expression (Mean) (TLR2; 10 nM PIM, no 1.25D3): 1.80 | TLR2 expression (in words) (TLR2; [3]): increasing | Cathelicidin mRNA expression (Mean) (cathelicidin; Example 2, with 10 nM Pimecrolimus + 0.1 μg/ml LPS): 8.67 | Cathelicidin mRNA expression (Mean) (cathelicidin; Example 2, with 10 nM Pimecrolimus + 0.1 μg/ml Malp-2): 26.08 | Cathelicidin mRNA expression (Mean) (cathelicidin; Example 2, with 10 nM Pimecrolimus + 1 μg/ml PGN): 9.81 | Cathelicidin mRNA expression (Mean) (cathelicidin; Example 2, with 10 nM Pimecrolimus + 10 μg/ml LTA): 18.56 | Cathelicidin mRNA expression (Mean) (cathelicidin; Example 2, with 10 nM Pimecrolimus, no TLR ligand (control row)): 2.64 | Cathelicidin mRNA expression (Mean) (cathelicidin; Example 4, 10 nM pimecrolimus, 1 nM 1.25 D3, 0.1 μg/ml Malp-2 or combination): 22.57 | Cathelicidin mRNA expression (means) (cathelicidin; Example 5, Experiment 1, with 0.1 μg/ml Malp-2, 10 nM pimecrolimus): 2.98 | Cathelicidin mRNA expression (means) (cathelicidin; Example 5, Experiment 1, without Malp-2, 10 nM pimecrolimus): 1.33 | Cathelicidin mRNA expression (means) (cathelicidin; Example 5, Experiment 2, with 0.1 μg/ml Malp-2, 10 nM pimecrolimus): 3.07 | Cathelicidin mRNA expression (means) (cathelicidin; Example 5, Experiment 2, without Malp-2, 10 nM pimecrolimus): 2.40 | Cathelicidin mRNA expression (Means of N = 3) (cathelicidin; 0 h): 1.20 | Cathelicidin mRNA expression (Means of N = 3) (cathelicidin; 8 h): 1.82 | Cathelicidin mRNA expression (Means of N = 3) (cathelicidin; 24 h): 1.75 | Cathelicidin mRNA expression (Means of N = 3) (cathelicidin; 48 h): 2.06 | Concentration at which cathelicidin mRNA expression peaks (bell-shaped dose response) (cathelicidin; Example 7): 20 nM | Cathelicidin mRNA expression (Mean) (cathelicidin; Example 7, 5 nM PIM): 1.46 | Cathelicidin mRNA expression (Mean) (cathelicidin; Example 7, 10 nM Pim): 2.26 | Cathelicidin mRNA expression (Mean) (cathelicidin; Example 7, 20 nM Pim): 82.72 | Cathelicidin mRNA expression (Mean) (cathelicidin; Example 7, 40 nM Pim): 3.37 | Cathelicidin mRNA expression (Mean) (cathelicidin; Example 7, 60 nM Pim): 1.78 | Cathelicidin mRNA expression (Mean) (cathelicidin; Example 8, 0.01 nM PIM with 1 nM 1.25D3, 24 hours): 4.56 | Cathelicidin mRNA expression (Mean) (cathelicidin; Example 8, 0.01 nM PIM, no 1.25D3, 24 hours): 1.04 | Cathelicidin mRNA expression (Mean) (cathelicidin; Example 8, 0.1 nM PIM with 1 nM 1.25D3, 24 hours): 4.19 | Cathelicidin mRNA expression (Mean) (cathelicidin; Example 8, 0.1 nM PIM, no 1.25D3, 24 hours): 0.47 | Cathelicidin mRNA expression (Mean) (cathelicidin; Example 8, 1 nM PIM with 1 nM 1.25D3, 24 hours): 10.92 | Cathelicidin mRNA expression (Mean) (cathelicidin; Example 8, 1 nM PIM, no 1.25D3, 24 hours): 1.61 | Cathelicidin mRNA expression (Mean) (cathelicidin; Example 8, 10 nM PIM with 1 nM 1.25D3, 24 hours): 99.45 | Cathelicidin mRNA expression (Mean) (cathelicidin; Example 8, 10 nM PIM, no 1.25D3, 24 hours): 9.81 | Increase of cathelicidin mRNA expression, pimecrolimus in conjunction with calciferol versus pimecrolimus alone (cathelicidin; at the 1 nM and 10 nM concentrations of pimecrolimus, 1 nM calciferol): > 2 times | Transcript and protein abundance of antimicrobial genes (in words) (cathelicidin; in the presence of Toll 2/6 ligand Malp-2, summary of Tables 3-5 (cathelicidin, HBD2, HBD3)): increases transcript and protein abundance of antimicrobial genes | Cathelicidin transcript abundance (in words) (cathelicidin; [3]): enhances cathelicidin transcript abundance | TLR1 mRNA expression (Mean) (TLR1): 3.16 | Bacterial growth OD600 (Mean) ([1]; 0 h): 0.3083 | Bacterial growth OD600 (Mean) ([1]; 2 h): 0.3387 | Bacterial growth OD600 (Mean) ([1]; 4 h): 0.4157 | Bacterial growth OD600 (Mean) ([1]; 5 h): 0.4333 | Bacterial growth OD600 (Mean) ([1]; 6 h): 0.4227 | Bacterial growth OD600 (Mean) ([1]; 8 h): 0.601 | Direct antimicrobial effect (in words) ([1]; summary of Table 2): does not have an antimicrobial effect by itself | Bacterial growth OD600 (Mean) ([2]; 0 h): 0.2253 | Bacterial growth OD600 (Mean) ([2]; 2 h): 0.2557 | Bacterial growth OD600 (Mean) ([2]; 4 h): 0.2807 | Bacterial growth OD600 (Mean) ([2]; 5 h): 0.343 | Bacterial growth OD600 (Mean) ([2]; 6 h): 0.4507 | Bacterial growth OD600 (Mean) ([2]; 8 h): 0.6843 | Antimicrobial effect of keratinocytes against S. aureus ΔmprF (in words) ([2]; summary of Table 1): increases the ability of keratinocytes to kill Staphylococcus aureus ΔmprF
